Measurements as given in patent US20110086834A1, “ALKYNYL ALCOHOLS AS KINASE INHIBITORS” (AMGEN INC., priority 2008, published 2011).

Target: T1, NIK (Homo sapiens, UniProt Q99558)
T1 construct: Both assays utilize a truncated form of NIK containing only the catalytic domain; made in house; host or cells: baculovirus expression system (insect cells implied)
Assay: homogenous time resolved fluorescence (HTRF) assay for NIK Ki measurement
Assay type: biochemical
Conditions: not given

T1 sequence (Q99558 400-655 limits assumed): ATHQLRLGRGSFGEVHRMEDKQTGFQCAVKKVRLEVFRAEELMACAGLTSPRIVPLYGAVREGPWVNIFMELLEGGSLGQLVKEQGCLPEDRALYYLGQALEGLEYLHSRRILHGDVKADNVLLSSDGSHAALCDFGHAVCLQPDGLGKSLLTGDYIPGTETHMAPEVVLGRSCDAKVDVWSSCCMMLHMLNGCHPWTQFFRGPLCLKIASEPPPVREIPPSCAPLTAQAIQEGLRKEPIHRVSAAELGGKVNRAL

Ki | SMILES
< 1000 nM | Cc1cnc(C(C)(O)C#Cc2ccc3c(c2)N(c2ccnc(N)n2)CC3)o1 (stereo not shown) [Example 316, 4-(1-(2-Amino-4-pyrimidinyl)-2,3-dihydro-1H-indol-6-yl)-2-(5-methyl-1,3-oxazol-2-yl)-3-Butyn-2-ol]

Same assay, conditions: truncated NIK (catalytic domain only), autophosphorylation; 10 nM enzyme; 20, 100, 200 or 500 μM ATP; room temperature, 2 hours; read-out: Ki activity in the homogenous time resolved fluorescence (HTRF) assay for NIK

SMILES | Ki
CC1(C)CN(c2nc(N)nc3[nH]cnc23)c2cc(C#CC3(O)CCCC3)ccc21 [Example 75, 1-((1-(2-amino-9H-purin-6-yl)-3,3-dimethyl-2,3-dihydro-1H-indol-6-yl)ethynyl)cyclopentanol] | < 1000 nM
C[C@](O)(C#Cc1ccc2c(c1)N(c1nc(N)ncc1Cl)CC21COC1)c1nccs1 [Example 81] | 1000 to 30000 nM
Cc1cc([C@](C)(O)C#Cc2ccc3c(c2)N(c2nc(N)ncc2Cl)CC3)on1 (single isomer, unassigned) [Example 29] | < 1000 nM
Nc1ncc(Cl)c(-c2c[nH]c3ccc(C#CC4(O)CCCC4)cc23)n1 [Example 107, 1-(2-(3-(2-amino-5-chloropyrimidin-4-yl)-1H-indol-5-yl)ethynyl)cyclopentanol] | < 1000 nM
Cc1cc([C@](C)(O)C#Cc2ccc3c(c2)N(c2ncns2)CC3(C)C)no1 [Example 14, (R)-4-(3,3-dimethyl-1-(1,2,4-thiadiazol-5-yl)indolin-6-yl)-2-(5-methylisoxazol-3-yl)but-3-yn-2-ol] | < 1000 nM
CC(O)(C#Cc1ccc2c(c1)N(c1ncncn1)CC21CCOCC1)c1nccs1 (stereo not shown) [Example 37, 2-(1,3-thiazol-2-yl)-4-(1-(1,3,5-triazin-2-yl)-1,2,2′,3′,5′,6′-hexahydrospiro[indole-3,4′-pyran]-6-yl)-3-butyn-2-ol] | < 1000 nM
Cn1cnc(C(C)(O)C#Cc2ccc3c(c2)N(c2nc(N)ncc2Cl)CC3(C)C)c1 (stereo not shown) [Example 45, 4-(1-(2-amino-5-chloro-4-pyrimidinyl)-3,3-dimethyl-2,3-dihydro-1H-indol-6-yl)-2-(1-methyl-1H-imidazol-4-yl)-3-butyn-2-ol] | < 1000 nM
Cc1c[nH]c(C(C)(O)C#Cc2ccc3c(c2)N(c2nc(N)ncc2Cl)CC3(C)C)n1 (stereo not shown) [Example 79, 4-(1-(2-Amino-5-chloro-4-pyrimidinyl)-3,3-dimethyl-2,3-dihydro-1H-indol-6-yl)-2-(4-methyl-1H-imidazol-2-yl)-3-butyn-2-ol] | < 1000 nM
C[C@@](O)(C#Cc1ccc2c(c1)N(c1nc(N)ncc1Cl)CC2(CO)CO)c1nccs1 (single isomer, unassigned) [Example 61] | < 1000 nM
COCC1(C)CN(c2nc(N)nc3[nH]cnc23)c2cc(C#CC3(O)CCCC3)ccc21 (stereo not shown) [Example 69, 1-((1-(2-amino-9H-purin-6-yl)-3-(methoxymethyl)-3-methyl-2,3-dihydro-1H-indol-6-yl)ethynyl)cyclopentanol] | < 1000 nM
Nc1ncc(Cl)c(N2CCc3ccc(C#CC4(O)CCCC4)cc32)n1 [Example 16, 1-(2-(1-(2-amino-5-chloropyrimidin-4-yl)indolin-6-yl)ethynyl)cyclopentanol] | < 1000 nM
CC(O)(C#Cc1ccc2c(c1)N(c1nc(N)ncc1Cl)CC2)c1ccn[nH]1 (stereo not shown) [Example 78, 4-(1-(2-Amino-5-chloro-4-pyrimidinyl)-2,3-dihydro-1H-indol-6-yl)-2-(1H-pyrazol-5-yl)-3-butyn-2-ol] | < 1000 nM
Nc1nc(N2CCc3ccc(C#CC4(O)CCCC4)cc32)c2nc[nH]c2n1 [Example 72, 1-((1-(2-amino-9H-purin-6-yl)-2,3-dihydro-1H-indol-6-yl)ethynyl)cyclopentanol] | < 1000 nM

Second part, the compound after the results:

Ki | SMILES
< 1000 nM | Cc1csc(C(C)(O)C#Cc2ccc3c(c2)N(c2ccnc(N)n2)CC3)c1 (stereo not shown) [Example 277, 4-(1-(2-amino-4-pyrimidinyl)-2,3-dihydro-1H-indol-6-yl)-2-(4-methyl-2-thienyl)-3-butyn-2-ol]
< 1000 nM | CN1CC[C@@]2(C1)CN(c1nc(N)ncc1Cl)c1cc(C#C[C@@](C)(O)c3nccs3)ccc12 (relative stereo) [Example 195, (2R)-4-((3R*)-1-(2-Amino-5-chloro-4-pyrimidinyl)-1′-methyl-1,2-dihydrospiro[indole-3,3′-pyrrolidin]-6-yl)-2-(1,3-thiazol-2-yl)-3-butyn-2-ol]
< 1000 nM | Nc1ncc2c(n1)-c1c([nH]c3ccc(C#CC4(O)CCCC4)cc13)CCC2 [Example 238, 1-((2-Amino-5,6,7,8-tetrahydropyrimido[4′,′:3,4]cyclohepta[1,2-b]indol-11-yl)ethynyl)cyclopentanol]
< 1000 nM | Cc1cnc(C(C)(O)C#Cc2ccc3ncc(-c4nc(N)ncc4Cl)n3c2)s1 (stereo not shown) [Example 300, 4-(3-(2-Amino-5-chloro-4-pyrimidinyl)imidazo[1,2-a]pyridin-6-yl)-2-(5-methyl-1,3-thiazol-2-yl)-3-butyn-2-ol]
< 1000 nM | CN1CC2(C1)CN(c1nc(N)ncc1Cl)c1cc(C#CC(C)(O)c3nccs3)ccc12 (racemic) [Example 181, (rac)-4-(1′-(2-amino-5-chloropyrimidin-4-yl)-1-methylspiro[azetidine-3,3′-indoline]-6′-yl)-2-(thiazol-2-yl)but-3-yn-2-ol]
< 1000 nM | CN1CC2(C1)CN(c1nc(N)ncc1Cl)c1cc(C#CC3(O)CCCC3)ccc12 [Example 180, 1-((1′-(2-amino-5-chloropyrimidin-4-yl)-1-methylspiro[azetidine-3,3′-indoline]-6′-yl)ethynyl)cyclopentanol]
< 1000 nM | CC(C)C(=O)n1cc(-c2nc(N)ncc2Cl)c2cc(C#CC3(O)CCCC3)ccc21 [Example 119, 1-(3-(2-amino-5-chloropyrimidin-4-yl)-5-(2-(1-hydroxycyclopentyl)ethynyl)-1H-indol-1-yl)-2-methylpropan-1-one]
< 1000 nM | C[C@@](O)(C#Cc1ccc2c(c1)N(c1nc(N)ncc1Cl)CC21CCOCC1)c1nccs1 (single isomer, unassigned) [Example 209]
< 1000 nM | C[C@@](O)(C#Cc1ccc2c(c1)C(c1nc(N)ncc1Cl)=CC21CCOCC1)c1nccs1 [Example 221, (2R)-4-(3-(2-Amino-5-chloro-4-pyrimidinyl)-2′,3′,5′,6′-tetrahydrospiro[indene-1,4′-pyran]-5-yl)-2-(1,3-thiazol-2-yl)-3-butyn-2-ol]
< 1000 nM | Nc1ncc(F)c(N2CC3(CCOCC3)c3ccc(C#CC4(O)CCCC4)cc32)n1 [Example 206, 1-((1-(2-Amino-5-fluoro-4-pyrimidinyl)-1,2,2′,3′,5′,6′-hexahydrospiro[indole-3,4′-pyran]-6-yl)ethynyl)cyclopentanol]
< 1000 nM | CC(O)(C#Cc1cccc(Oc2nc(N)ncc2Cl)c1)c1nccs1 (stereo not shown) [Example 315, 4-(3-((2-amino-5-chloro-4-pyrimidinyl)oxy)phenyl)-2-(1,3-thiazol-2-yl)-3-butyn-2-ol]
< 1000 nM | CC(O)(C#Cc1ccc2c(c1)N(c1ncncc1Cl)CC2(C)C)c1nccs1 (stereo not shown) [Example 312, 4-(1-(5-chloro-4-pyrimidinyl)-3,3-dimethyl-2,3-dihydro-1H-indol-6-yl)-2-(1,3-thiazol-2-yl)-3-butyn-2-ol]
< 1000 nM | CC(O)(C#Cc1ccc2c(c1)N(c1nc(N)ncc1Cl)CC2)c1ccccn1 (stereo not shown) [Example 308, 4-(1-(2-Amino-5-chloro-4-pyrimidinyl)-2,3-dihydro-1H-indol-6-yl)-2-(2-pyridinyl)-3-butyn-2-ol]
< 1000 nM | Cc1cc(C(C)(O)C#Cc2ccc(C)c(Nc3nc(N)ncc3Cl)c2)no1 (stereo not shown) [Example 161, 4-(3-(2-Amino-5-chloropyrimidin-4-ylamino)-4-methylphenyl)-2-(5-methylisoxazol-3-yl)but-3-yn-2-ol]
